Results published in ChEMBL document CHEMBL1201862, “PubChem BioAssay data set” (2004).
The source made the active and inactive calls. Rule as the data show it, for most assays here: actives have a measured EC50 and inactives only a lower limit.

Assays:
[1] = alpha-synuclein stem-loop luciferase translation blockers – H4 neuroglioma cells, luminescence, confirmation (AID 1988); type: functional, cell-based
[2] = Luminescence Cell-Based Dose Response HTS to Identify Inhibitors of 5'UTR Stem-Loop Driven Prion Protein mRNA Translation in H4 Neuroglioblastoma Cells. [Related pubchem assays: 1827 (Project Summary), 1813 (Primary HTS)]; type: functional
[3] = luciferase reporter signal suppression in cells – H4 neuroglioma cells, luminescence, dose response (AID 1990); type: functional, cell-based
[4] = target: T1, Heat shock factor protein 1 (Mus musculus, UniProt P38532); assay: decrease of HSF1-responsive luciferase luminescence – cell-based, NIH3T3, dose retest, confirmation (AID 2382); type: functional;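 also: NIH3T3 fibroblasts with HSF1-driven luciferase reporter stressed by proteasome inhibitor MG132; luminescence from HSF1-driven luciferase expression after 8 hours of MG132 stress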
T1 sequence (P38532 whole entry): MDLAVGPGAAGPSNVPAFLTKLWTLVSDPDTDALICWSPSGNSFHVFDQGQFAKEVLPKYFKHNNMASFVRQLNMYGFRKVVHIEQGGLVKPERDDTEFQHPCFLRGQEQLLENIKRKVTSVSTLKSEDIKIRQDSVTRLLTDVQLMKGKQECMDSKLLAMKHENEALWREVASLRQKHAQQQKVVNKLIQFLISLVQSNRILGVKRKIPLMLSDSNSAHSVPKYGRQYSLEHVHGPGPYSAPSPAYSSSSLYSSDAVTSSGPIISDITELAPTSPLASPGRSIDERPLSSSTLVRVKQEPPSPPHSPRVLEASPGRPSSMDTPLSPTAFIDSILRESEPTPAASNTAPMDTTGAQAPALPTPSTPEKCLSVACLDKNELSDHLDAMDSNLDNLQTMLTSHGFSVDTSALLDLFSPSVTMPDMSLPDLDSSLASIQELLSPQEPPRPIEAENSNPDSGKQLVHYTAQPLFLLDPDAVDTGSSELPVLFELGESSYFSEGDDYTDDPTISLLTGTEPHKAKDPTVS

[5] = target: T2, Protein RecA (Mycobacterium tuberculosis, UniProt P9WHJ3); assay: Fluorescence Cell-Free Homogeneous Dose Retest to Identify Inhibitors of RecA-Intein Splicing Activity. [Related pubchem assays (depositor defined):AID2097, AID2223, AID489010, AID492950]; type: functional
T2 sequence (P9WHJ3 whole entry): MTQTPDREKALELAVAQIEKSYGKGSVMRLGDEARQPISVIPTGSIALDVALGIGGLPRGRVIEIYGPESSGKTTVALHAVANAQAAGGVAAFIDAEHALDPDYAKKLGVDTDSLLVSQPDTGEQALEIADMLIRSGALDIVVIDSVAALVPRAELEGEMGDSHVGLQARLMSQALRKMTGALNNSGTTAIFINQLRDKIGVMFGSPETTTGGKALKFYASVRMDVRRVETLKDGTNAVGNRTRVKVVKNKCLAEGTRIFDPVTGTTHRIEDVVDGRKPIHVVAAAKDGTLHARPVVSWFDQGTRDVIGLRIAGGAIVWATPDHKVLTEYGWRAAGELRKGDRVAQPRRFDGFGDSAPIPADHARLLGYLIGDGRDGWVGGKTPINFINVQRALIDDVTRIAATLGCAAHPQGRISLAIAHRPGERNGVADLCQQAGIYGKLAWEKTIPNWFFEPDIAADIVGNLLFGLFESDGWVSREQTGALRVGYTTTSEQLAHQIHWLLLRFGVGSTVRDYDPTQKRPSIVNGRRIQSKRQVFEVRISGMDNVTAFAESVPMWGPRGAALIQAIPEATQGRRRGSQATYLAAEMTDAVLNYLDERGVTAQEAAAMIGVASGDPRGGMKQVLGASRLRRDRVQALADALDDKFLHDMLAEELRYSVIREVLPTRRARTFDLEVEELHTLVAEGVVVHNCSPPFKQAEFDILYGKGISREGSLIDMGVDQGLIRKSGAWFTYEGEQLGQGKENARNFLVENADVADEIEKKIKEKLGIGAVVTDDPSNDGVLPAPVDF

[6] = target: T3, Replicative DNA helicase DnaB (Mycobacterium tuberculosis, UniProt P9WMR3); assay: DnaB intein splicing inhibitors, dose response, biochemical, cell-free fluorescence (AID 449749); type: functional
T3 sequence (P9WMR3 whole entry): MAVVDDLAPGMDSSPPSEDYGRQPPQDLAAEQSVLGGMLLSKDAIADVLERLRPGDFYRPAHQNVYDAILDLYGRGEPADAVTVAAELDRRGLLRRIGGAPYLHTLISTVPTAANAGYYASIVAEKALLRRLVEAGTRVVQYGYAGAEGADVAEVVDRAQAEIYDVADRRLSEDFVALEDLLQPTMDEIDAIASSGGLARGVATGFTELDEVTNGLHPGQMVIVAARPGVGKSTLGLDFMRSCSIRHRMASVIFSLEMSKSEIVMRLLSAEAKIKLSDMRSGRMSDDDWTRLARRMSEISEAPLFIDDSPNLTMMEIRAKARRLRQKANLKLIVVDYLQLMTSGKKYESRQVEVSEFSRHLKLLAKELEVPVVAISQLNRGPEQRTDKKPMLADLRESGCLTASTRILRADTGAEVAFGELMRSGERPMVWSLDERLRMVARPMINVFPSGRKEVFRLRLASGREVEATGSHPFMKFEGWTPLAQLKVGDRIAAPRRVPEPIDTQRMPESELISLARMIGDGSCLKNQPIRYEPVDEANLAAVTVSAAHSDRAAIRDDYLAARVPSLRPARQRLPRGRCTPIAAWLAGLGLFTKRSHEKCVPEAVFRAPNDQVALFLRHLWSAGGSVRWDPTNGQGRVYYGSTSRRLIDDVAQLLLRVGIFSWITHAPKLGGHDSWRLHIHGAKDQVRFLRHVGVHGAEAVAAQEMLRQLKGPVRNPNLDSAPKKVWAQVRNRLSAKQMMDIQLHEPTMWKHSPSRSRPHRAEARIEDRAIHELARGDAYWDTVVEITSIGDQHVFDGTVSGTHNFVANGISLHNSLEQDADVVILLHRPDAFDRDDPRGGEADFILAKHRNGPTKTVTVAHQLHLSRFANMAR

[7] = target: T4, Protein skinhead-1 (Caenorhabditis elegans, UniProt P34707); type: functional
T4 sequence (P34707 whole entry): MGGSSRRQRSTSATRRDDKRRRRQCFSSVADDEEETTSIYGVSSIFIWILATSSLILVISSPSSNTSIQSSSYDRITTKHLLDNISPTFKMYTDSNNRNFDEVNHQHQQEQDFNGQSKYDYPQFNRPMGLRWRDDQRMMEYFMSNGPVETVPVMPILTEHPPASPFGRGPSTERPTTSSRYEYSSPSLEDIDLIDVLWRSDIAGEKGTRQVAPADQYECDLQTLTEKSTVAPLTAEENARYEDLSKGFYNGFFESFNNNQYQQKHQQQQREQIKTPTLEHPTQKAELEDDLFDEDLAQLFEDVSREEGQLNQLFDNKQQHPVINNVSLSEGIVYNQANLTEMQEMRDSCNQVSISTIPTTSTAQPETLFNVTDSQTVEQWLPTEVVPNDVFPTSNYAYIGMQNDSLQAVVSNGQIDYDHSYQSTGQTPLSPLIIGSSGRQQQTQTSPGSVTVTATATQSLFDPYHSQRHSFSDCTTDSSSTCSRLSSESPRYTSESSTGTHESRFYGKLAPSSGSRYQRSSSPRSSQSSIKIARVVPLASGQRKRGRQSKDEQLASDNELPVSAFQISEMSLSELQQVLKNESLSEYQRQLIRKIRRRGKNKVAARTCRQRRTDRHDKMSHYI

[8] = tested on: H4; assay: Luminescence Cell-Based Dose Response HTS to Identify Activators of 5'UTR Stem-Loop Driven Prion Protein mRNA Translation in H4 Neuroglioblastoma Cells. [Related pubchem assays: 1829 (Project Summary), 1814 (Primary HTS)]; type: functional; conditions: Homo sapiens
[9] = Luminescence Cell-Based Dose Response HTS to Identify Activators of Luciferase Translation or Activity in H4 […] Cells. [Related pubchem assays: 1829 (Project Summary), 1814 (Primary HTS)]; type: functional

For Cc1cc(Oc2ccc3ccccc3c2)nc(SCC(=O)c2ccccc2)n1, the EC50 [1] was 26.9 µM (active), the EC50 [2] was 15 µM (active) and the EC50 [3] was > 120 µM (not active).

With CCOc1ccc(CNS(=O)(=O)c2c(C)nc3scc(C)n3c2=O)cc1OC the EC50 [4] was > 195 µM (not active).

For O=C(Nc1ccc(N2CCN(c3ccc(O)cc3)CC2)cc1)Oc1ccccc1, the EC50 [4] was > 195 µM (not active).

With COc1cc(-c2onc3ccc(Br)cc23)cc(OC)c1OC the EC50 [1] was 4.29 µM (active), the EC50 [2] was 10.8 µM (active) and the EC50 [3] was > 120 µM (not active).

For CCOc1ccccc1-n1c(CN2CCN(C(=O)c3ccco3)CC2)nc2ccccc2c1=O, the EC50 [1] was 7.97 µM (active), the EC50 [2] was 8.43 µM (active) and the EC50 [3] was 8.25 µM (active).

For Cc1n[nH]c2c1C(c1ccco1)C(C#N)=C(N)O2 (configuration not stated), the EC50 [5] was 4.28 µM (active) and the AC50 [6] was 54.1 µM (active).

With CC(C)CCNC(=O)c1cnn2c(C(F)(F)F)cc(-c3ccco3)nc12 the IC50 [7] was > 100 µM (inactive).

For O=C(Nc1ccccc1-c1nc2ccccc2s1)c1cccnc1, the EC50 [4] was > 195 µM (not active).

In the case of N#CC1=C(N)Oc2[nH]nc(-c3cccs3)c2C1c1ccoc1 (configuration not stated), the EC50 [5] is reported as 7.09 µM (active) and the AC50 [6] is reported as 10.4 µM (active).

In the case of O=C(c1cnn2c(C(F)F)cc(-c3ccccc3)nc12)N1CCCc2ccccc21, the EC50 [1] is reported as 26.3 µM (active), the EC50 [2] is reported as 23.8 µM (active) and the EC50 [3] is reported as 19.2 µM (active).

For CC1CCc2nc(NC(=O)C3COc4ccccc4O3)sc2C1 (configuration not stated), the EC50 [1] was 5.45 µM (active), the EC50 [2] was 10 µM (active) and the EC50 [3] was 5.93 µM (inconclusive).

With COc1ccc(CNC(=O)C2CCN(S(=O)(=O)c3ccc4c(c3)C(C)(C)C(=O)N4C)CC2)cc1 the EC50 [4] was 55.2 µM (active).

For Brc1ccc(-c2nc(-c3ccncc3)no2)o1, the IC50 [7] was 86.1 µM (inactive).

For COc1ccc(C=O)cc1CN1CCCN(Cc2ccc(Cl)cc2)S1(=O)=O, the EC50 [4] was > 195 µM (not active).

For Cc1ccccc1Cn1nnc2c1C(=O)c1ccccc1C2=O, the EC50 [1] was > 60 µM (not active), the EC50 [2] was > 120 µM (not active) and the EC50 [3] was > 120 µM (not active).

In the case of O=S(=O)(O)Oc1c[nH]c2ccccc12, the EC50 [5] is reported as 0.155 µM (active) and the AC50 [6] is reported as 1.34 µM (active).

For CCCC(=O)Nc1cccc(NC(=O)c2cccc([N+](=O)[O-])c2C)c1, the EC50 [4] was 20.5 µM (active).

With O=C(Nc1nc(C(F)(F)F)n[nH]1)c1cccs1 the EC50 [5] was 9.84 µM (active) and the AC50 [6] was 3.65 µM (active).

For COc1cc(C2NC(=O)NC(C)=C2C(=O)OCC2CCCO2)ccc1O (configuration not stated), the EC50 [4] was > 195 µM (not active).

In the case of O=C(c1ccccc1)N1C(=O)C(c2ccccc2)Oc2ccccc21 (configuration not stated), the EC50 [1] is reported as > 120 µM (not active), the EC50 [2] is reported as > 120 µM (not active) and the EC50 [3] is reported as > 120 µM (not active).

With COCCCNC(=O)COc1ccc2oc3c(c2c1)CCCC3 the IC50 [7] was > 100 µM (inactive).

With O=S(=O)(c1cc(Cl)ccc1Cl)N1CCC2(CC1)OCCO2 the EC50 [4] was > 195 µM (not active).

With O=C(OCc1ccccc1)c1ccc2c(c1)-c1ccccc1C2=O the EC50 [8] was 11.1 µM (active) and the EC50 [9] was 14.8 µM (active).

In the case of Cc1ccc(Cl)c(N/C=C/C(=O)c2ccccc2)c1, the IC50 [7] is reported as 27.9 µM (active).

For CC(Oc1ccc(Cl)cc1)c1ccnn1S(C)(=O)=O (configuration not stated), the IC50 [7] was > 100 µM (inactive).

With CCC(=O)CCC(=O)c1ccc2ccccc2c1 the EC50 [4] was > 195 µM (not active).

With O=c1c([N+](=O)[O-])c(N2CCOCC2)c2ccccc2n1Cc1ccccc1 the EC50 [1] was > 120 µM (not active), the EC50 [2] was > 120 µM (not active) and the EC50 [3] was 19 µM (active).

With Cc1ccc(-c2nnc(-c3cccs3)o2)cc1 the IC50 [7] was 35.5 µM (active).

For N#Cc1cc([N+](=O)[O-])ccc1NC(=O)COC(=O)CCC1CCCCC1, the EC50 [5] was 3.31 µM (active) and the AC50 [6] was 1.72 µM (active).

With O=C(c1cnn2c(C(F)(F)F)cc(-c3ccco3)nc12)N1CCCc2ccccc21 the IC50 [7] was > 100 µM (inactive).

For CS(=O)(=O)NNC(=O)CN1C(=O)C2C3C=CC(C3)C2C1=O (configuration not stated), the EC50 [1] was > 120 µM (not active), the EC50 [2] was 22.1 µM (active) and the EC50 [3] was > 120 µM (not active).

For Cn1c(SCC(=O)NCC2CCCO2)ncc(C(=O)Nc2ccc(F)cc2)c1=O (configuration not stated), the EC50 [5] was 0.315 µM (active) and the AC50 [6] was 0.51 µM (active).

With O=S(=O)(Nc1c(O)ccc2ccccc12)c1ccc(F)cc1 the EC50 [5] was 1.16 µM (active) and the AC50 [6] was 12.2 µM (active).

With CC(=O)/C(=N\Nc1ccc(Cl)cc1)Sc1nnc(-c2ccccc2)n1-c1ccccc1 the EC50 [4] was > 195 µM (not active).

For Cc1cc(=O)n(-c2ccccc2Cl)[nH]1, the EC50 [5] was 5.4 µM (active) and the AC50 [6] was 10.7 µM (active).

For C/C(CC(=O)Nc1ccccn1)=N\NC(=O)c1cccc(C)c1, the EC50 [5] was 7.75 µM (active) and the AC50 [6] was 20.1 µM (active).

For COc1ccc(CCN2C(=O)CS/C2=N\NC(=O)c2ccc(C(C)(C)C)cc2)cc1OC, the EC50 [1] was > 120 µM (not active), the EC50 [2] was 21.1 µM (active) and the EC50 [3] was 22.4 µM (active).
